≈ marks a conversion by molar mass, not a printed value.
Columns and labels:
[1] = X-ray photoelectron spectroscopy (XPS) of particle surface composition; type: physicochemical
Experimental: […]
Powders containing ITZ were prepared according to procedures outlined in Examples 1, 2, 3, and 4 with the same formulations. The elemental composition of the particle surfaces was determined using X-ray photoelectron spectroscopy (XPS). […] Percent surface excess of ITZ was calculated by deducting 50% from the percent surface compositions of ITZ while percent surface excess of lecithin was calculated by deducting 25% from the percent surface compositions of lecithin. […]

[2] = Solubility and pKa of itraconazole; type: physicochemical; details: pH 1.2 dissolution media, simulated gastric fluid, thermodynamic from solid, crystalline ITZ, read-out: Equilibrium solubility Ceq
From the text: This study compares the effectiveness of fine emulsion templating and co-solvent approaches with the URF process to enhance the wetting and solubility of the model drug, itraconazole (ITZ). Itraconazole (ITZ) is a weakly basic broad-spectrum triazole antifungal agent indicated in the treatment of both local and systemic fungal infections; however, successful treatment of infections is often complicated by its low aqueous solubility resulting in variable absorption and plasma concentration. Classified as a BCS class II compound, ITZ has a strongly pH dependent solubility (pKa˜3.7) with reported solubilities in acidic and neutral media of approximately 4 μg/mL and 1 ng/mL, respectively. While limited by poor aqueous solubility, the highly lipophilic nature of the compound allows for high permeability of intestinal membranes. […]

[3] = cited from earlier work

Mass Concentration Chlorine, SOL [1]: 9.54% | Surface composition ITZ, SOL [1]: 100.0% | solubility thermodynamic [2]: 5 µg/mL (≈ 7.09 µM)
Structure (SMILES): CCC(C)n1ncn(-c2ccc(N3CCN(c4ccc(OCC5COC(Cn6cncn6)(c6ccc(Cl)cc6Cl)O5)cc4)CC3)cc2)c1=O (stereo not shown) [ITZ, itraconazole]
pKa [3]: ~3.7

Reference: patent publication US20120251595A1, “EMULSION TEMPLATE METHOD TO FORM SMALL PARTICLES OF HYDROPHOBIC AGENTS WITH SURFACE ENRICHED HYDROPHILICITY BY ULTRA RAPID FREEZING” (BOARD OF REGENTS, THE UNIVERSITY OF TEXAS SYSTEM, priority 2009, published 2012)
